Active and inactive are the calls of the source. The rule behind the calls is not given here.
System: M. tuberculosis growth, meropenem IC50 shift with compound
Assay: confirmation, meropenem IC50 shift (AID 485340);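 note: growth read after one week of culture plus overnight Alamar Blue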
[1] = compound alone IC50 vs Mtb, compound dose (near its own IC50) 4.69 µM
[2] = compound dose (near its own IC50) 4.69 µM
[3] = compound alone IC50 vs Mtb, compound dose (near its own IC50) 2.35 µM
[4] = compound dose (near its own IC50) 2.35 µM
[5] = compound alone IC50 vs Mtb, compound dose (near its own IC50) 9.38 µM
[6] = compound dose (near its own IC50) 9.38 µM
[7] = compound alone IC50 vs Mtb, compound dose (near its own IC50) 1.18 µM
[8] = compound dose (near its own IC50) 1.18 µM

In the case of `CCNC(=S)N/N=C1\C(=O)c2cccc3cccc1c23`, the IC50 [1] is reported as 5.46 µM and the IC50 [2] is reported as 4.97 µM (inactive).

With `Cc1ccc(Cn2c(NC(=O)c3ccco3)nc3ccccc32)cc1` the IC50 [3] was 2.62 µM and the IC50 [4] was 4.24 µM (inactive).

For `C/C(=N\NC(N)=S)c1ccc(-n2ccnc2)cc1`, the IC50 [5] was 6.58 µM and the IC50 [6] was 3.97 µM (inactive).

In the case of `COc1ccc(-c2cc(C(N)=O)nc(N3CCCCCC3)n2)cc1`, the IC50 [1] is reported as 3.95 µM and the IC50 [2] is reported as 4.05 µM (inactive).

In the case of `Cc1cc(NC(=O)/C=C/c2ccccc2Cl)n(-c2nc3ccccc3[nH]2)n1`, the IC50 [3] is reported as 1.94 µM and the IC50 [4] is reported as 5.88 µM (inactive).

`COC(=O)c1c(-c2ccc(OC)cc2)oc2ccc(-c3cc(OC)c(OC)c(OC)c3)cc12` was tested, and the IC50 [5] was 7.72 µM and the IC50 [6] was 6.1 µM (inactive).

With `CCOC(=O)Cn1c(=NC(=O)C2CC2)sc2c(C)cc(C)cc21` the IC50 [5] was 9.84 µM and the IC50 [6] was 3.54 µM (inactive).

For `Cc1onc(-c2c(Cl)cccc2Cl)c1/C(N)=N/OC(=O)C1CC1`, the IC50 [3] was 2.05 µM and the IC50 [4] was 1.02 µM (inactive).

`O=c1oc(-c2ccccc2F)nc2scc(-c3ccccc3)c12` was tested, and the IC50 [3] was 2.19 µM and the IC50 [4] was 5.8 µM (inactive).

In the case of `NC(=S)N/N=C/c1ccc(/C=N/NC(N)=S)cc1`, the IC50 [3] is reported as 2.5 µM and the IC50 [4] is reported as 4.04 µM (inactive).

With `CCSc1nnc(NC(=O)C2Cc3ccccc3CN2C(=O)c2ccco2)s1` (centres undefined) the IC50 [3] was 2.69 µM and the IC50 [4] was 6.22 µM (inactive).

In the case of `Cc1ccc(-c2nc3[nH]c(=O)cc(NC(=O)C(C)C)n3n2)cc1`, the IC50 [5] is reported as 7.36 µM and the IC50 [6] is reported as 3.83 µM (inactive).

In the case of `O=C(N/N=C/c1cc([N+](=O)[O-])ccc1O)C1CC1`, the IC50 [1] is reported as 4.14 µM and the IC50 [2] is reported as 5.6 µM (inactive).

With `O=C(COC(=O)C1CC1)c1c[nH]c2ccccc12` the IC50 [7] was 0.999 µM and the IC50 [8] was 4.65 µM (inactive).

For `COc1ccc2oc(C(=O)Nc3nc4ccccc4[nH]3)c(C)c2c1`, the IC50 [3] was 1.7 µM and the IC50 [4] was 3.58 µM (inactive).

With `O=C(COC(=O)C1CC1)NCc1ccccc1Cl` the IC50 [7] was 1.37 µM and the IC50 [8] was 2.59 µM (inactive).

For `Nc1c2c(nc3sc4c(c13)CCCC4)-c1ccccc1CC2`, the IC50 [1] was 6.11 µM and the IC50 [2] was 6.03 µM (inactive).

With `CCOc1ccc2nc(NC(=O)c3cnccn3)sc2c1` the IC50 [1] was 4.07 µM and the IC50 [2] was 4.08 µM (inactive).

`O=C(COC(=O)C1=COCCO1)Nc1ccc2c(c1)OCO2` was tested, and the IC50 [1] was 3.86 µM and the IC50 [2] was 4.01 µM (inactive).

For `CCOc1ccc2c(c1)c(C(C)=O)c(C)n2-c1ccccc1`, the IC50 (compound alone IC50 vs Mtb, compound dose (near its own IC50) 0.15 µM) was 0.2 µM and the IC50 (compound dose (near its own IC50) 0.15 µM) was 3.86 µM (inactive).

For `c1ccc(-n2c3ccccc3c3ccccc32)cc1`, the IC50 [3] was 3.27 µM and the IC50 [4] was 7.17 µM (inactive).

`N#Cc1c(-c2cccs2)cc(-c2ccccn2)nc1N` was tested, and the IC50 [5] was 6.92 µM and the IC50 [6] was 0.73 µM.

— PubChem BioAssay AID485340 (Southern Research Specialized Biocontainment Screening …, 2010)
